# Measurements taken from publication PMC7217877, “N-AS-triggered SPMs are direct regulators of microglia in a model of Alzheimer’s disease” (Nature Communications, 2020).
# Several values for one entry are separate records, joined by “and”; a condition that tells them apart may be missing. Equal values may be shown once.
# Key:
# microglia [1] = assay: western blotting for ac-S565 and total COX2 in primary cells; format: cell-based, C57BL/6 mice; parameters: ac-S565, western blotting (Fig 3h): scale not given here; conditions: Ab 10mM + supplement, replicates
# Protocol: To confirm the generation and roles of N-AS in neurons, cells from E18 C57BL/6 mice were prepared as previously described. Cortices were dissected and then dissociated followed by incubation in papain (Worthington) at 37 °C for 15 min. Neurons were plated on poly-L-lysine-coated coverslips with neuronal culture medium, serum-free Neurobasal medium (Gibco) containing 2% B27 supplements (Gibco), 1 mM Glutamax supplement (Gibco), and 100 U ml^−1 streptomycin/ 100 U ml^−1 penicillin (Gibco) at 37 °C in a humidified atmosphere of 5% CO2. Aβ 1–42 (10 μM, 24 h, Invitrogen, 03112) was exposed to neurons and the cells were analyzed for the generation and roles of N-AS. Primary astrocyte cultures were prepared from C57BL/6 mice as described previously. In brief, after removal of the meninges, postnatal day 7 (P7) mouse brain tissues were minced and incubated in a rocking water bath at 37 °C for 30 min in the presence of 0.25% trypsin-EDTA (Sigma-Aldrich). Enzyme-digested dissociated cells were triturated with astrocyte-specific medium (DMEM/F12 containing 10% FBS and 1% penicillin-streptomycin) and centrifuged at 155×g for 8 min. The pellet was resuspended in astrocyte-specific medium and passed through a 40-μm cell strainer. The filtrate was allowed pre-adherence for 30 min to remove any contamination from fibroblasts before being seeded in dishes and the addition of astrocyte-specific medium. To split the cells, Ara-C was added to the dishes and they were then placed in a heated shaker for 6–7 h. The medium was removed from the dishes, and trypsin-EDTA was added to the dish and incubated at 37 °C for 5–10 min. After centrifugation at 155×g for 8 min, the supernatant was removed, and the astrocytes were maintained in culture by feeding […] with astrocyte-specific medium. Primary microglia cultures were prepared from C57BL/6 mice as described previously. In brief, the cortices of 2-months-old mice were minced in Hibernate A (Gibco)/B27 supplements (Gibco) medium and dissociated using papain (Worthington) solution. After tissue trituration, cells were separated by Optiprep (Sigma-Aldrich) density gradient centrifugation. Microglia were plated with microglia-specific medium (DMEM/F12 containing 10% FBS and 1% penicillin-streptomycin). The immortalized human microglia (Applied Biologics Materials, T0251) were cultured in PriGrow III (Applied Biologics Materials, TM003) (supplemented with 10% FBS and 1% penicillin-streptomycin) at 37 °C in a humidified atmosphere of 5% CO2. In order to assess the clinical importance of N-AS in AD microglia, Aβ 1–42 (50 μM, 24 h, Invitrogen, 03112) was exposed to human microglia before treated with zileuton (50 μM, 24 h, Sigma-Aldrich, Z4277). The human microglia treated with Aβ 1–42 and/or zileuton was incubated with N-AS (2.5 μM, 2 h, Sigma-Aldrich, 01912), and were analyzed for the generation and roles of N-AS.
# Samples were lysed in RIPA buffer (Cell signaling Technologies), then subjected to SDS-PAGE and transferred to a nitrocellulose membrane. Membranes were blocked with 5% milk, incubated with primary antibody and then incubated with the appropriate horseradish peroxidase-conjugated secondary antibody. […] We performed densitometric quantification using the ImageJ software (National Institutes of Health). Images have been cropped for presentation.
# [2] = tested on: immortalized human microglia; assay: LM-SPM profile of human microglia (LC-MS/MS, Supplementary Table 3, Fig 6d); format: cell-based; parameters: 15R-LxA4 / RvE1 / RvD1: unit not given here; conditions: for 15R-LxA4 / RvD1 / RvE1: human microglia, sFig 6d; for 11-HEPE in human microglia / 11-HETE in human microglia / 13-HDHA in human microglia / 15-HEPE in human microglia / 15-HETE in human microglia / 15R-LXA4 in human microglia / 17-HDHA in human microglia / 18-HEPE in human microglia / PGE3/PGD3 in human microglia / PGH2/PGE2 in human microglia / RvD1 in human microglia / RvE1 in human microglia: mean±s.e.m.
# microglia [3] = assay: quantification of 15R-LXA4, RvE1, RvD1 in primary cells (LC-MS/MS); format: cell-based, C57BL/6 mice; parameters: unit not given here; conditions: Ab + supplement, replicates
# Protocol: Lipid mediators metabololipidomics were performed according to previously described procedures with minor modifications[4],[30]. To confirm the biosynthesis of lipid mediators by recombinant COX2 treated with N-AS or aspirin, 10 U of human recombinant COX2 (Cayman, 60122) was incubated in the presence of 500 μM aspirin (Sigma-Aldrich, A5376) or N-AS (Sigma-Aldrich, 01912) at 37 °C for 30 min. The enzyme was filtered with a Microcon column (Millipore) to remove unreacted aspirin or N-AS and was then resuspended in 0.1 M Tris-HCl (pH 8.0). Next, 500 μM phenol (Sigma-Aldrich) and 1 μM hematin-porcine (Sigma-Aldrich) were added immediately before incubation with 100 μM AA, EPA or DHA (Cayman) at 37 °C for 2 h, respectively. The mixtures were incubated with 30 U of human 5-LOX (Cayman, 60402) containing 2 mM CaCl2 (Sigma-Aldrich), 1 mM ATP (Amresco) and 5 μM 13-HpODE (Cayman) as activators. Also, to validate the importance of residue S565 for N-AS-acetylation of COX2 and production of SPMs, 10 U of the COX2 S565A mutant was used in the above-described method. In addition, to confirm SPM generation in neurons and microglia, these cells were treated with Aβ and sonicated in neuronal and glial culture medium. […] To evaluate the relationship of N-AS and SPM production in microglia, microglia were isolated from WT, APP/PS1, and APP/PS1 treated with N-AS mice at 9 months of age. The microglia were sonicated and resuspended in microglial culture medium. The supernatants were incubated with 100 μM AA, EPA, and DHA (Cayman) at 37 °C for 2 h. A 50 μl aliquot of the mixture from each cell lysate was added to a 250 μl aliquot of 1 ng ml^−1 of 15S-LXA4-d5 (internal standard, Cayman) methanol solution. After vortexing for 10 min and centrifuging at 15,974×g for 5 min, the supernatant was subjected to the analysis of the lipid mediators using an Agilent 6470 Triple Quad LC-MS/MS system (Agilent) coupled to an Agilent 1290 HPLC system. Chromatographic separation was achieved using a Synergi Polar RP (4 μm, 2.0 mm i.d. × 150 mm, Phenomenex). Analytes were eluted with a mobile phase consisting of water: formic acid (100:0.1 v/v) (phase A) and methanol: formic acid (100:0.1 v/v) (phase B) in gradient elution mode for 23 min a flow rate of 0.2 ml min^−1. The elution gradient was as follows: from 0 to 0.1 min the content of phase A was 37% and the content of phase A was decreased to 10% and maintained for 5.5 min. The content of phase A was increased back to 37% at 6.0 min and maintained for 23 min. Quantification was carried out using MRM in negative ionization mode and collision energy of 10–15 eV. The mass transition from Q1 to Q3 is shown in Supplementary Table 2. In this study, the peak areas for all components were automatically integrated using MassHunter B 06.00. […]
smiles,measurement,setting,value
"CC(=O)SCCNC(=O)CCNC(=O)[C@H](O)C(C)(C)COP(=O)(O)OP(=O)(O)OC[C@H]1O[C@@H](n2cnc3c(N)ncnc32)[C@H](O)[C@@H]1OP(=O)(O)O [Acetyl-CoA, acetyl-CoA]","ac-S565, western blotting (Fig 3h)",microglia [1],1.293 and 1.204 and 1.322 and 1.2834
same,15R-LxA4,[2]; Aβ 50 µM +,29.8592 and 28.6097 and 30.6248 and 29.0936 and 30.1012
same,RvD1,[2]; Aβ 50 µM +,2.566 and 2.828 and 2.839 and 2.697 and 2.833 and 2.768
same,RvE1,[2]; Aβ 50 µM +,14.9946 and 13.574 and 15.0361 and 14.2843 and 14.305
same,15R-LxA4 (Fig 3i),microglia [3],23.4411 and 23.4018 and 22.7231 and 22.8804 and 24.0018 and 22.8017
same,RvD1 (Fig 3i),microglia [3],1.293 and 1.217 and 1.321 and 1.255 and 1.269 and 1.288
same,RvE1 (Fig 3i),microglia [3],7.62 and 7.421 and 7.916 and 7.52 and 7.668 and 7.718
"CCCCCCCCCCCCC/C=C/[C@@H](O)[C@H](CO)NC(C)=O [N-AS, N-((2S,3R,E)-1,3-Dihydroxyoctadec-4-en-2-yl)acetamide]","ac-S565, western blotting (Fig 3h)",microglia [1],1.339 and 1.447 and 1.994 and 1.362
same,11-HEPE in human microglia,[2]; Aβ 50 µM + treatment,371.7±4.0 ng/ml*106cell
same,11-HETE in human microglia,[2]; Aβ 50 µM + treatment,148.4±1.9 ng/ml*106cell
same,13-HDHA in human microglia,[2]; Aβ 50 µM + treatment,133.0±1.8 ng/ml*106cell
same,15-HEPE in human microglia,[2]; Aβ 50 µM + treatment,237.9±3.7 ng/ml*106cell
same,15-HETE in human microglia,[2]; Aβ 50 µM + treatment,625.4±1.7 ng/ml*106cell
same,15R-LXA4 in human microglia,[2]; Aβ 50 µM + treatment,19.8±0.2 ng/ml*106cell
same,17-HDHA in human microglia,[2]; Aβ 50 µM + treatment,707.6±8.2 ng/ml*106cell
same,18-HEPE in human microglia,[2]; Aβ 50 µM + treatment,1763.6±30.4 ng/ml*106cell
same,PGE3/PGD3 in human microglia,[2]; Aβ 50 µM + treatment,132.9±2.0 ng/ml*106cell
same,PGH2/PGE2 in human microglia,[2]; Aβ 50 µM + treatment,95.7±0.9 ng/ml*106cell
same,RvD1 in human microglia,[2]; Aβ 50 µM + treatment,2.13±0.02 ng/ml*106cell
same,RvE1 in human microglia,[2]; Aβ 50 µM + treatment,8.6±0.3 ng/ml*106cell
same,"SPM production, in words",[2]; Aβ-treated human microglia + N-AS,improved SPM production
same,11-HEPE in human microglia,[2]; Control (no Aβ) + treatment,451.8±4.6 ng/ml*106cell
same,11-HETE in human microglia,[2]; Control (no Aβ) + treatment,161.8±0.9 ng/ml*106cell
same,13-HDHA in human microglia,[2]; Control (no Aβ) + treatment,133.9±2.2 ng/ml*106cell
same,15-HEPE in human microglia,[2]; Control (no Aβ) + treatment,284.1±4.0 ng/ml*106cell
same,15-HETE in human microglia,[2]; Control (no Aβ) + treatment,625.5±6.8 ng/ml*106cell
same,15R-LXA4 in human microglia,[2]; Control (no Aβ) + treatment,28.7±0.3 ng/ml*106cell
same,17-HDHA in human microglia,[2]; Control (no Aβ) + treatment,633.8±9.2 ng/ml*106cell
same,18-HEPE in human microglia,[2]; Control (no Aβ) + treatment,1636.9±19.7 ng/ml*106cell
same,PGE3/PGD3 in human microglia,[2]; Control (no Aβ) + treatment,113.1±1.6 ng/ml*106cell
same,PGH2/PGE2 in human microglia,[2]; Control (no Aβ) + treatment,105.8±1.1 ng/ml*106cell
same,RvD1 in human microglia,[2]; Control (no Aβ) + treatment,2.36±0.02 ng/ml*106cell
same,RvE1 in human microglia,[2]; Control (no Aβ) + treatment,18.5±0.4 ng/ml*106cell
same,15R-LxA4,[2]; Aβ 50 µM +,20.003 and 19.3859 and 19.5943 and 20.5159 and 19.4901 and 20.0551
same,RvD1,[2]; Aβ 50 µM +,2.139 and 2.0589 and 2.21 and 2.099 and 2.134 and 2.154
same,RvE1,[2]; Aβ 50 µM +,9.835 and 7.339 and 9.039 and 8.587 and 8.189 and 8.813
same,15R-LxA4,[2]; Aβ 50 µM -,29.0008 and 28.9046 and 27.6099 and 29.7445 and 28.2572 and 28.6772
same,RvD1,[2]; Aβ 50 µM -,2.289 and 2.353 and 2.443 and 2.321 and 2.398 and 2.382
same,RvE1,[2]; Aβ 50 µM -,19.7237 and 16.8195 and 19.2333 and 18.2716 and 18.0264 and 18.7524
same,15R-LxA4 (Fig 3i),microglia [3],7.914 and 7.871 and 7.582 and 7.755 and 8.0725 and 7.669
same,RvD1 (Fig 3i),microglia [3],0.9961 and 0.9192 and 1.008 and 0.9576 and 0.9636 and 0.9828
same,RvE1 (Fig 3i),microglia [3],3.41 and 3.669 and 3.726 and 3.54 and 3.698 and 3.633
